These are literature values, as cited in patent US20110290119A1, “ANTIMICROBIAL ELECTRET WEB” (3M Innovative Properties Company, priority 2009, published 2011).

Each structure is given as a SMILES string.

In this series the test system is Ps. aeruginosa (gram negative). The settings on record: known.

With `O=C1OC2(c3cc(I)c(O)c(I)c3Oc3c2cc(I)c(O)c3I)c2c(Cl)c(Cl)c(Cl)c(Cl)c21` [rose bengal, 4,5,6,7-Tetrachloro-3′,6′-dihydroxy-2′,4′,5′,7′-tetraiodo-3H-spiro[isobenzofuran-1,9′-xanthen]-3-one], the microbial load reduction result is recorded as “not particularly effective”.
